Measured values as given in patent publication US8143192B2, “Methods for increasing the resistance of plants to hypoxic conditions” (Bayer Cropscience N.V., priority 2005, dated 2012).
Where two headings read alike, the source gives them in different places.

How the values were obtained:
[1] = tested on: Arabidopsis thaliana cv. C24 plants; experiment: Depth of Arabidopsis root growth in growth medium after application of 6-chloronicotinic acid (6-CNA); assay type: in vivo; conditions: for Root depth, mean: after three weeks, untreated mean 2.031034
Protocol: Sterilization of Arabidopsis seeds: 2 min.
Low light overnight to 24 hours.
Plants are grown at 23° C. 30-50 μEinstein s^−1m^−2. 12 hours light-12 hours dark. (See FIG. 1)

[2] = tested on: Arabidopsis thaliana cv. C24 plants; conditions: 0.7% Difco agar; for Root depth, mean: after three weeks, untreated mean 1.9475, *p < 0.01
Protocol: A container (1) with a seal (2) is filled with a transparent or translucent growth medium (3), such as 0.4% agar-water or 0.7% agar-water, to which additional test-compounds may be added. One pregerminated seed is added to the tube and allowed to grow for three weeks. After three weeks of growth in vertical position, the root depth (5) of the plant (4) is measured from the top of the medium to the lowest point of the roots.
Germination medium: Half concentrated Murashige and Skoog salts; B5 vitamins; 1.5% sucrose; pH 5.8; 0.4% Difco agar.
Sterilization of Arabidopsis seeds: 2 min. 70% ethanol; 10 min. bleach (6% active chlorine)+1 drop Tween 20 for 20 ml solution; wash 5 times with sterile tap water; sterilization is done in 2 ml eppendorf tubes. Arabidopsis seeds sink to the bottom of the tube, allowing removal of the liquids by means of a 1 ml pipetman.
Pregermination of seeds: In 9 cm Optilux Petridishes (Falcon) containing 10 ml sterile tap water. Low light overnight to 24 hours.
Growing of Arabidopsis plants: Seeds are sown in 25×150 mm glass tubes (Sigma C5916) with natural (transparent) colored closure (Sigma C5791) containing ±34 ml germination medium: 1 seed/tube. The tubes are put in the two outer rows of tube holders for 40 tubes (VWR nalg5970-0025) wrapped in aluminium foil so that the roots can grow in the dark. Plants are grown at 23° C. 30-50 μEinstein s^−1m^−2. 12 hours light-12 hours dark.
After three weeks, the root depth is measured from the surface of the medium to the lowest point of root growth.

Compound | Root depth, mean ([1]; 1 mg/L 6-CNA in germination medium, *p < 0.01) | Root depth, mean ([1]; 5 mg/L 6-CNA in germination medium, **p < 0.05) | Root protrusion into growth medium compared to non-treated plants ([1]; 1 and 5 mg/l 6-CNA, three weeks) | Root depth, mean ([2]; 50 mg/L imidacloprid in germination medium) | Root depth, mean ([2]; 100 mg/L imidacloprid in germination medium) | Root protrusion into growth medium compared to non-treated plants ([2]; 50 and 100 mg/l imidacloprid, three weeks)
O=C(O)c1ccc(Cl)nc1 [6-CNA, 6-chloronicotinic acid] | 2.18 mm | 2.118 mm | protruded deeper in the growth medium |  |  | 
O=[N+]([O-])/N=C1\NCCN1Cc1ccc(Cl)nc1 [imidacloprid] |  |  |  | 2.1875 mm | 2.2725 mm | protruded deeper in the growth medium
